Laboratory results published in publication PMC7778606, “Development of the phenylpyrazolo[3,4-d]pyrimidine-based, insulin-like growth factor receptor/Src/AXL-targeting small molecule kinase inhibitor” (Theranostics, 2021).

Assays:
AXL = assay: Western blot, phosphorylation of AXL in H1944 and A549 cells; format: cell-based, human; settings: 100 nM monotherapy, 1 day
Experimental: (§1) Before harvesting, the cells were stimulated with 10% FBS for 20 min. Total cell lysates were prepared with modified radioimmunoprecipitation assay lysis buffer (50 mM Tris-HCl [pH 7.4], 150 mM NaCl, 1 mM EDTA, 0.25% sodium deoxycholate, 1% Triton X-100, 100 mM NaF, 5 mM Na3VO4, 1 mM PMSF, 1 μg/mL aprotinin, 1 μg/mL leupeptin, and 1 μg/mL pepstatin). Equal amounts of protein (20 μg) were subjected to 8% SDS-PAGE and electrically transferred onto polyvinylidene difluoride membranes (Bio-Rad Laboratories, Hercules, CA, USA). Membranes were blocked with blocking buffer (3% BSA in Tris-buffered saline containing 0.1% Tween-20 [TBST]) for 1 h at room temperature. The membranes were incubated with primary antibodies diluted in 3% BSA in TBST (1:1,000) overnight at 4 °C, washed multiple times with TBST, and incubated with secondary antibodies diluted in 3% nonfat dry milk in TBST (1:5,000) for 1 h at room temperature. The membranes were washed multiple times with TBST and visualized using an enhanced chemiluminescence detection kit (Thermo Fisher Scientific). Densitometric analysis was performed using ImageJ software.

H1299 cells = assay: MTT assay, viability of H1299 cells; format: cell-based; settings: Homo sapiens, NCI-H1299, 72 h, three days, read-out: IC50 against the viability
Experimental: (§2) Cells were seeded into 96-well plates at a density of 1-2 × 10^3 cells/well and incubated for 24 h. Cells were treated with vehicle or various concentrations of test compounds for two (PC9 and PC9/ER cells) or three (other cells) days. Cells were further incubated with MTT solution (final concentration of 500 μg/mL) for 4 h at 37 °C. The formazan products were dissolved in dimethyl sulfoxide (DMSO), and the absorbance was measured at 570 nm. The data are presented as a percentage of the control group.

H460 cells = assay: MTT assay, viability of H460 cells; format: cell-based; settings: Homo sapiens, NCI-H460, 72 h, three days, read-out: IC50 against the viability
Experimental: as §2

A549 cells = assay: MTT assay, viability of A549 cells; format: cell-based; settings: Homo sapiens, 72 h; A549, MTT assay, 10 μM; read-out: % cells growth at 10 μM
Experimental: as §2

IGF-1R = assay: Western blot, phosphorylation of IGF-1R in H1944 and A549 cells; format: cell-based, human; settings: 2 μM monotherapy, 1 day
Experimental: as §1

Row | SMILES | phosphorylation of AXL (AXL) | IC50 (H1299 cells) | IC50 (H460 cells) | activity at 10 µM (A549 cells) | phosphorylation of IGF-1R (IGF-1R)
1 | Nc1nc(Nc2ccc3c(c2)CC[C@@H](N2CCCC2)CC3)nn1-c1cc2c(nn1)-c1ccccc1CCC2 [Bemcentinib, bemcentinib] | suppressed phosphorylation | 530 nM | 180 nM | – | –
2 | COc1cc(Nc2c(C#N)cnc3cc(OCCCN4CCN(C)CC4)c(OC)cc23)c(Cl)cc1Cl [Bosutinib, bosutinib, reference compound] | – | – | – | 46% | –
3 | Cc1ccc(-c2n[nH]c3ncnc(N)c23)cc1 [Compound 1a] | – | – | – | 98% | –
4 | Oc1ccc(Nc2nccc(Nc3cnc4ccccc4c3)n2)cc1 [Compound 23a] | – | – | – | 69% | –
5 | Cc1nc(Nc2ncc(C(=O)Nc3c(C)cccc3Cl)s2)cc(N2CCN(CCO)CC2)n1 [Dasatinib, dasatinib] | – | 20 nM | 540 nM | – | –
6 | C[C@]1(O)C[C@@H](c2nc(-c3ccc4ccc(-c5ccccc5)nc4c3)c3c(N)nccn32)C1 [Linsitinib] | – | 12800 nM | 3780 nM | – | suppressed phosphorylation
